Reference: patent EP2401611B1, “IMPROVED METHODS FOR IDENTIFICATION” (Cambridge Enterprise Limited, priority 2009, dated 2010)
Like-named read-outs stand apart in the source and are kept apart here.

Columns and labels:
[1] = system: THP-1 cells; test: MCP-1 induced THP-1 cell migration (Transwell) assay; type: cell-based, human; settings: for "Classical" : "BSCI" potency ratio Human: Table 3, THP-1 migration ED50 versus Panc-2H4 insulin suppression ED50
Protocol: Leukocyte migration was measured using the 96-well format micro Transwell^RTM assay system from Neuroprobe (Gaithersburg, MD, USA). In principle, this assay consists of two chambers separated by a porous membrane. The chemoattractant is placed in the lower compartment and the cells are placed in the upper compartment. After incubation for a period at 37°C the cells move towards the chemoattractant, and the number of cells in the lower compartment is proportional to the chemoattractant activity (relative to a series of controls).
(§1) The method was performed essentially as previously described (Reckless & Grainger (1999) Biochem. J. 340:803-11).
First, the cell suspension to be placed in the upper compartment was prepared. The THP-1 cells were pelleted by centrifugation (770 x g; 4 mins) and washed with Geys Balanced Salt Solution with 1mg/ml BSA (GBSS + BSA). This wash was then repeated, and the cells re-pelleted before being resuspended in a small volume of GBSS + BSA for counting, for example using a standard haemocytometer.
The volume of GBSS + BSA was then adjusted depending on the number of cells present so that the cells were at final density of 4.45 x 10^6 cells per ml of GBSS + BSA. This ensured that there were 100,000 THP-1 cells in each 25µl of the solution to be placed in the upper chamber of the plate.
The suspension of THP-1 cells at 4.45 x 10^6 cells/ml was divided into three pots. To one pot the BSCI was added at an appropriate final concentration, in an appropriate vehicle (for example (S)- 3-(2',2'-dimethylpropanoylamino)-tetrahydropyridin-2-one was added at 1nM from a stock solution in GBSS). To the second pot, the BSCI was added at the same concentration as in the first pot, but additionally the sstr2 antagonist was also added (for example BIM 23454 [Tulipano et al. (2002) 143:1218-24] or BIM 23627 were added at 66nM final concentration from a stock solution in GBSS). To the third pot, GBSS + BSA plus vehicle as appropriate was added so that the volumes in three pots are equal, acting as a control.
Next, the chemoattractant solution to be placed in the lower compartment was prepared. […]. Note that, as recommended by Frow et al (Med. Res. Rev. 24:276-98) this is the concentration of MCP-1 which induces maximal migration in this system. This solution was divided into three pots, as for the cell suspension. To one pot, the BSCI was added to the same final concentration as was added to the cell suspension, in the second pot the BSCI and the sstr2 antagonist were both added at the same concentration as previously added to the cell suspension, while to the remaining pot GBSS + BSA plus vehicle as appropriate was added so that the volumes in the three pots were equal. Note that the volume of liquid that needs to be added to make the addition of the BSCI and the sstr2 antagonist compounds needs to be taken into account, when establishing the final concentration of MCP-1 in the solution for the lower compartment and the final concentration of cells in the upper compartment.
(§2) Once the chemoattractant solutions for the lower wells and cell solutions for the upper chambers were prepared, the migration chamber was assembled. 29 µl of the appropriate chemoattractant solution was placed into the lower well of the chamber. Assays were performed with at least triplicate determinations of each condition. Once all the lower chambers were filled, the porous membrane was applied to the chamber in accordance with the manufacturer's instructions. Finally, 25 µl of the appropriate cell solution was applied to each upper chamber. A plastic lid was placed over the entire apparatus to prevent evaporation.
The assembled chamber was incubated at 37 °C, 5% CO2, for 2 hours. A suspension of cells in GBSS + BSA was also incubated under identical conditions in a tube: these cells were used to construct a standard curve for determining the number of cells that migrated to the lower chamber under each condition. […]

[2] = system: Panc-2H4; test: Human Panc-2H4 insulin suppression assay; type: cell-based
From the text: (§3) Two different assays for "classical" sstr2 functions were adopted: (1) cultured foetal rat pituitary cells secreted growth hormone which is inhibited by sstr2 agonists in a dose-dependent fashion and (2) selected glucose-sensitive sub-clones of the human Panc-1 cell line secrete insulin which is inhibited by sstr2 agonists in a dose-dependent fashion.
Glucose-sensitive sub-clones of the human Panc-1, a cell line derived from a pleiomorphic epithelioid carcinoma of the exocrine pancreas, were obtained essentially as described by Hamil et al. (2008) Biomed. Sci. Instrum. 44:441-6. Briefly, Panc-1 cells were subcultured in 24 well plates, and the medium was supplemented with an additional 5% glucose. […] The resulting sub-lines were then tested for glucose sensitivity by preparing wells of a 96-well plate (5 x 10^4 cells per well) which were then exposed to cultured medium containing a range of glucose concentrations (low glucose DMEM, DMEM, DMEM + 1% glucose, DMEM ± 2.5% glucose and DMEM + 5% glucose). After 24hrs incubation, the conditioned medium was collected and assayed for insulin secretion by ELISA (Linco; cat# EZHI-14K) in accordance with the manufacturer's instructions. […] Further 96 well plates were prepared using Panc-2H4 (5 x 10^4 cells per well) in DMEM. After 24hrs, the medium was switched to DMEM + 5% glucose containing various test agents at various concentrations (triplicate wells per condition). After a further 24hrs, the conditioned medium was harvested and the concentration of insulin was determined by ELISA as described above.
(§4) Results were reported as the mean ± SD, expressed as the fold change from cells in the presence of vehicle only.

[3] = target: sstr2 (Homo sapiens, UniProt P30874); test: [3H]-BN83250 equilibrium binding to THP-1 cells
sstr2, sequence (P30874 whole entry): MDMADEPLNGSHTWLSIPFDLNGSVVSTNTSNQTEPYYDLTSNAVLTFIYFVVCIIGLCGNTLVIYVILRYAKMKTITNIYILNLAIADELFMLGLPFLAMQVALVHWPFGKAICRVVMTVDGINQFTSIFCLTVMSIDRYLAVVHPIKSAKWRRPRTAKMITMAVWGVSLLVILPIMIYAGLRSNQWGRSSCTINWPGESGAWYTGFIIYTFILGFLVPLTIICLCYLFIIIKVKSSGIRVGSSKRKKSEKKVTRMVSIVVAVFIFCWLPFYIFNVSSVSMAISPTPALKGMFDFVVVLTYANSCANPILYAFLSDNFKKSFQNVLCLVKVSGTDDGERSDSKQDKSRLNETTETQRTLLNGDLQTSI
Protocol: We have investigated the molecular interaction between BSCIs and the sstr2 receptor using conventional equilibrium binding studies employing labelled BSCI ligands.
For the analysis of binding, individual reactions were set up (in triplicate for each condition), with 1x10^6 THP-1 cells in Gey's Balanced Salt Solution, 10nM [^3H]-BN83250 (at 50 Ci/mmol) and various concentrations of (S)-3(2'2'-dimethylpropionoylamino)-tetrahydropyridin-2-one (10pM to 10µM). Excess (100µM) unlabelled BN83250 was used to determine the level of non-specific binding. After 2 hours at 4°C (conditions previously shown to achieve equilibrium binding, and which prevent uptake of the radioligand that would result in an over-estimate of binding) excess label was washed away by centrifugation (3 washes with 5ml of Gey's Balanced Salt Solution) and the bound radioactivity was determined by scintillation counting of the solubilised cell pellet.

[4] = system: fetal rat pituicytes; test: Rat pituicyte GH suppression assay; type: cell-based; settings: for EC50: Table 3, read-out: Rat pituicyte GH suppression assay ED50
From the text: as §3
Methods: Cultures of fetal rat pituicytes were established exactly as previously described (Murray et al. (2004) J. Clin. Endocrinol. Metab. 89:3027-32) by enzymatic dispersion. After 48hrs in low glucose DMEM plus 10% FCS, cells in 48 well plates (5 x 10^4 cells per well) were washed for 4hrs in serum-free DMEM and then incubated with test agents at various concentrations for a further 24hrs in serum-free DMEM. At the end of this period, the conditioned medium was harvested, any cell debris removed by centrifugation and assayed for GH using a commercially available ELISA (Linco; cat# EZRMGH-45K) in accordance with the manufacturer's instructions.
as §4

[5] = system: rat peripheral blood leukocytes; test: Rat chemokine-induced PBMC migration assay; type: cell-based
[6] = system: THP-1 cells; test: MCP-1 induced THP-1 cell migration (Transwell) assay; type: cell-based, human
Protocol: In principle, this assay consists of two chambers separated by a porous membrane. The chemoattractant is placed in the lower compartment and the cells are placed in the upper compartment.
as §1
First, the cell suspension to be placed in the upper compartment was prepared.
Next, the chemoattractant solution to be placed in the lower compartment was prepared. […] Note that, as recommended by Frow et al (Med. Res. Rev. 24:276-98) this is the concentration of MCP-1 which induces maximal migration in this system. This solution was divided into three pots, as for the cell suspension.
as §2, with “29 µl of the appropriate chemoattractant solution was placed into the lower well of the chamber.” left out, “Finally, 25 µl of the appropriate cell solution was applied to each upper chamber.” left out
This procedure caused any cells adhering to the underside of the membrane to fall into the lower chamber.
The number of cells migrated into the lower chamber under each condition can then be determined by a number of methods, including direct counting, labelling with fluorescent or radioactive markers or through the use of a vital dye. Typically, we utilised the vital dye MTT.

[7] = target: type 2 somatostatin receptor (sstr2), human (human) (UniProt P30874); test: cell-based or functional assay
[8] = Table 4, 0.01nM to 1,000nM in DMSO vehicle, read-out: Chemokine-induced THP-1 cell migration assay ("BSCI" target) ED50
[9] = Table 4, 0.01nM to 1,000nM in DMSO vehicle, read-out: Panc-2H4 insulin suppression assay ("classical" target) ED50
[10] = Table 4, THP-1 migration ED50 versus insulin suppression ED50
[11] = Table 3, percentage suppression compared to vehicle

CC(=O)NC(CC(N)=O)C(=O)NC(C(=O)NCC1CCCC(CN)C1)C(C)c1c[nH]c2ccccc12 (mixture of isomers) [D]
Chemokine-induced THP-1 cell migration assay ("BSCI" target) Max Effect (%) ([1]; Table 4): <10%
EC50 [1, 8]: > 1000 nM
Panc-2H4 insulin suppression assay ("classical" target) Max Effect (%) ([2]; Table 4): 37%
EC50 [2, 9]: 650 nM

CC1(C(=O)N[C@H]2CCCCNC2=O)CCCCC1 [(S)-3-(1'-methylcyclohexyl-1'-carbonylamino)-caprolactam]
competition with BN83250 binding to sstr2 (in words) [3]: also compete with BN83250 binding to sstr2 to a similar extent

O=C1NCCCC[C@@H]1NC(=O)C12CC3CC(CC(C3)C1)C2 [BN83470, (S)-3-(admantane-1'-carbonylamino)-caprolactam]
EC50 ([1]; Homo sapiens, THP-1, Table 3, read-out: Human chemokine-induced THP-1 migration assay ED50): 0.08 nM
Emax ([1]; Homo sapiens, THP-1, Table 3, read-out: Human chemokine-induced THP-1 migration assay Max effect (%)): 100%
"Classical" : "BSCI" potency ratio Human [1]: <0.00008
Emax ([4]; Rattus norvegicus, Table 3, percentage suppression compared to vehicle, read-out: Rat pituicyte GH suppression assay Max effect (%)): 56%
EC50 ([4]; Rattus norvegicus): 270 nM
Emax ([2]; Homo sapiens, Table 3, percentage suppression compared to vehicle, read-out: Human Panc-2H4 insulin suppression assay Max effect (%)): < 10%
EC50 ([5]; Rattus norvegicus, Leukocyte, Table 3, read-out: Rat chemokine-induced PBMC migration assay ED50): 0.22 nM
Emax ([5]; Rattus norvegicus, Leukocyte, Table 3, read-out: Rat chemokine-induced PBMC migration assay Max effect (%)): 100%
"Classical" : "BSCI" potency ratio Rat ([5]; Table 3, rat PBMC migration ED50 versus rat pituicyte GH suppression ED50): 0.0008
competition with BN83250 binding to sstr2 (in words) [3]: also compete with BN83250 binding to sstr2 to a similar extent

CC(c1c[nH]c2ccccc12)C(NC(=O)N1CCC(NC(N)=O)CC1)C(=O)NCC1CCCC(CN)C1 (stereo not drawn) [Compound A]
EC50 [1, 8]: > 1000 nM

CC(c1c[nH]c2ccccc12)C(NC(=O)N1CC(=O)NC(=O)C1)C(=O)NCC1CCCC(CN)C1 (stereo not drawn) [Compound B]
Chemokine-induced THP-1 cell migration assay ("BSCI" target) Max Effect (%) ([1]; Table 4): 100%
EC50 [1, 8]: 220 nM
RATIO [1, 10]: 1.3
Panc-2H4 insulin suppression assay ("classical" target) Max Effect (%) ([2]; Table 4): 52%
EC50 [2, 9]: 167 nM

CC(c1c[nH]c2ccccc12)C(NC(=O)NC1CCCNC1=O)C(=O)NCC1CCCC(CN)C1 (stereo not drawn) [Compound C]
Chemokine-induced THP-1 cell migration assay ("BSCI" target) Max Effect (%) ([1]; Table 4): 100%
EC50 [1, 8]: 2 nM
RATIO [1, 10]: 0.02
Panc-2H4 insulin suppression assay ("classical" target) Max Effect (%) ([2]; Table 4): 56%
EC50 [2, 9]: 82 nM

CC(=O)NC(=O)C(NC(=O)N1CCC(n2c(=O)[nH]c3ccccc32)CC1)C(C)c1c[nH]c2ccccc12 (stereo not drawn) [Compound E]
Chemokine-induced THP-1 cell migration assay ("BSCI" target) Max Effect (%) ([1]; Table 4): <10%
EC50 [1, 8]: > 1000 nM
Panc-2H4 insulin suppression assay ("classical" target) Max Effect (%) ([2]; Table 4): <10%
EC50 [2, 9]: > 1000 nM

NCC1CCCC(CNC(=O)C(Cc2ccccc2)NC(=O)N2CCC(n3c(=O)[nH]c4ccccc43)CC2)C1 (stereo not drawn) [F]
Chemokine-induced THP-1 cell migration assay ("BSCI" target) Max Effect (%) ([1]; Table 4): <10%
EC50 [1, 8]: > 1000 nM
Panc-2H4 insulin suppression assay ("classical" target) Max Effect (%) ([2]; Table 4): <10%
EC50 [2, 9]: > 1000 nM

C[C@@H](c1c[nH]c2ccccc12)[C@@H](NC(=O)N1CCC(n2c(=O)[nH]c3ccccc32)CC1)C(=O)NC[C@@H]1CCC[C@H](CN)C1 [L-779,976]
Human chemokine-induced THP-1 migration assay Max effect (%) ([1]; Table 3): 65%
"Classical" : "BSCI" potency ratio Human [1]: 27
EC50 ([1]; Table 3, read-out: Human chemokine-induced THP-1 migration assay ED50): 450 nM
Chemokine-induced THP-1 cell migration assay ("BSCI" target) Max Effect (%) ([1]; Table 4): 65%
EC50 [1, 8]: 450 nM
RATIO [1, 10]: 26.5
Chemokine-induced THP-1 cell migration assay ("BSCI" target) Max Effect (%) ([1]; Table 5): 65%
RATIO ([1]; Table 5, THP-1 migration ED50 versus insulin suppression ED50): 26.5
EC50 ([1]; Table 5, library screening hits, read-out: Chemokine-induced THP-1 cell migration assay ("BSCI" target) ED50): 450 nM
Rat pituicyte GH suppression assay Max effect (%) [4, 11]: 55%
EC50 [4]: 2.9 nM
Human Panc-2H4 insulin suppression assay Max effect (%) [2, 11]: 40%
EC50 ([2]; Table 3, read-out: Human Panc-2H4 insulin suppression assay ED50): 17 nM
Panc-2H4 insulin suppression assay ("classical" target) Max Effect (%) ([2]; Table 4): 40%
EC50 [2, 9]: 17 nM
Panc-2H4 insulin suppression assay ("classical" target) Max Effect (%) ([2]; Table 5): 40%
EC50 ([2]; Table 5, library screening hits, read-out: Panc-2H4 insulin suppression assay ("classical" target) ED50): 17 nM

Cortistatin
ED50 for inhibition of chemokine-induced THP-1 cell migration [6]: ~75 nM
ED50 ([6]; Table 2, inhibition of MCP-1 induced THP-1 cell migration): 75 nM
Max effect ([6]; Table 2, maximum inhibition at the highest dose tested (1-10µM)): 40-60%
maximal inhibition of leukocyte migration ([6]; even at maximal / very high doses): ~50%

cortistatin (peptide)
ED50 for inhibition of MCP-1 induced THP-1 cell migration [7]: 75 nM

somatostatin-28 (from UniProt P61278 89-116) (peptide)
"Classical" : "BSCI" potency ratio, Human [7]: 6
ED50 for inhibition of MCP-1 induced THP-1 cell migration [7]: 0.9 nM
Human Panc-2H4 insulin suppression assay, ED50 [7]: 0.14 nM
Human chemokine-induced THP-1 migration assay, ED50 [7]: 0.9 nM
